Patent US4663329A, “Thienopyridinone derivatives and anti-bacterial compositions containing them” (Sanofi, priority 1984, dated 1987)
≈ marks a conversion by molar mass, not a printed value. Where two headings read alike, the source gives them in different places.

Columns and labels:
Assay type in all cases: cell-based
[1] = system: Bordetella bronchiseptica ATCC 4617; assay: In vitro antibacterial activity, MIC, Bordetella bronchiseptica ATCC 4617; conditions: ATCC4617, 37° C., pH=7.4, inoculum 10^4, read-out: MIC
Experimental: (§1) Tests carried out in vitro in accordance with the experimental procedure described hereunder have provided evidence of the antibacterial activity in question.
(§2) For this purpose, the M.I.C. were determined i.e. the minimal inhibiting concentrations of the compound under study acting on the growth of the bacteria at 37° C.
(§3) The serial dilutions method was used utilizing a MUELLER HINTON gelose medium at pH=7.4 and a bacterial inoculum of 10^4 units forming colonies. This inoculum was applied to the gelose by means of a multiple sowing device.
(§4) A scale of concentrations ranging from 100 to 0.05 μg/ml of compound to be studied was used starting from mother solutions titrating 1000 μg/ml, all the subsequent dilutions being effected in distilled water.

[2] = system: Klebsiella pneumoniae R 30; assay: In vitro antibacterial activity, MIC, Klebsiella pneumoniae R 30; conditions: R30
Experimental: as §1, §2, §3, §4

[3] = system: Escherichia coli 54127 IP; assay: In vitro antibacterial activity, MIC, Escherichia coli 54127 IP
Experimental: as §1, §2, §3, §4

[4] = system: Klebsiella pneumoniae ATCC 10031; assay: In vitro antibacterial activity, MIC, Klebsiella pneumoniae ATCC 10031; conditions: ATCC10031; Klebsiella pneumoniae ATCC 10031; 37° C., pH=7.4, inoculum 10^4; read-out: MIC
Experimental: as §1, §2, §3, §4

[5] = system: Providencia stuartii 5158; assay: In vitro antibacterial activity, MIC, Providencia stuartii 5158
Experimental: as §1, §2, §3, §4

[6] = system: Streptococcus faecalis 5855 IP; assay: In vitro antibacterial activity, MIC, Streptococcus faecalis 5855 IP; conditions: Enterococcus faecalis, 37° C., pH=7.4, inoculum 10^4, read-out: MIC
Experimental: as §1, §2, §3, §4

[7] = system: Proteus mirabilis ATCC 21100; assay: In vitro antibacterial activity, MIC, Proteus mirabilis ATCC 21100; conditions: ATCC21100; Proteus mirabilis ATCC 21100; 37° C., pH=7.4, inoculum 10^4; read-out: MIC
Experimental: as §1, §2, §3, §4

Shigella sonnei R 018 = assay: In vitro antibacterial activity, MIC, Shigella sonnei R 018; conditions: R018, 37° C., pH=7.4, inoculum 10^4
Experimental: as §1, §2, §3, §4

[8] = system: Proteus vulgaris RL 99 bis; assay: In vitro antibacterial activity, MIC, Proteus vulgaris RL 99 bis; conditions: RL99BIS
Experimental: as §1, §2, §3, §4

[9] = system: Serratia liquefaciens 376; assay: In vitro antibacterial activity, MIC, Serratia liquefaciens 376; conditions: 37° C., pH=7.4, inoculum 10^4, read-out: MIC
Experimental: as §1, §2, §3, §4

[10] = system: Enterobacter hafniae RO 46; assay: In vitro antibacterial activity, MIC, Enterobacter hafniae RO 46; conditions: Hafnia alvei, RO46
Experimental: as §1, §2, §3, §4

[11] = system: Pseudomonas aeruginosa 8203; assay: In vitro antibacterial activity, MIC, Pseudomonas aeruginosa 8203; conditions: 37° C., pH=7.4, inoculum 10^4, read-out: MIC
Experimental: as §1, §2, §3, §4

Proteus morganii 1510 = assay: In vitro antibacterial activity, MIC, Proteus morganii 1510; conditions: Morganella morganii
Experimental: as §1, §2, §3, §4

[12] = system: Staphylococcus aureus 53154 IP; assay: In vitro antibacterial activity, MIC, Staphylococcus aureus 53154 IP
Experimental: as §1, §2, §3, §4

[13] = system: Bacillus subtilis ATCC 6633; assay: In vitro antibacterial activity, MIC, Bacillus subtilis ATCC 6633; conditions: ATCC6633; Bacillus subtilis ATCC 6633; 37° C., pH=7.4, inoculum 10^4; read-out: MIC
Experimental: as §1, §2, §3, §4

[14] = system: Enterobacter cloacae P 99; assay: In vitro antibacterial activity, MIC, Enterobacter cloacae P 99; conditions: Enterobacter cloacae, P99
Experimental: as §1, §2, §3, §4

[15] = system: Salmonella typhimurium A 222 IP; assay: In vitro antibacterial activity, MIC, Salmonella typhimurium A 222 IP; conditions: Salmonella enterica
Experimental: as §1, §2, §3, §4

[16] = system: Salmonella typhi ATCC 6539; assay: In vitro antibacterial activity, MIC, Salmonella typhi ATCC 6539; conditions: Salmonella enterica
Experimental: as §1, §2, §3, §4

[17] = system: Citrobacter freundii GN 346; assay: In vitro antibacterial activity, MIC, Citrobacter freundii GN 346; conditions: GN346
Experimental: as §1, §2, §3, §4

[18] = system: Escherichia coli SOL RL 90; assay: In vitro antibacterial activity, MIC, Escherichia coli SOL RL 90; conditions: SOLRL90
Experimental: as §1, §2, §3, §4

[19] = system: Acinetobacter calcoaceticus C 1733; assay: In vitro antibacterial activity, MIC, Acinetobacter calcoaceticus C 1733; conditions: C1733, 37° C., pH=7.4, inoculum 10^4, read-out: MIC
Experimental: as §1, §2, §3, §4

[20] = Escherichia coli 54127 IP, 37° C., pH=7.4, inoculum 10^4, read-out: MIC
[21] = Proteus vulgaris RL 99 bis, 37° C., pH=7.4, inoculum 10^4, read-out: MIC
[22] = Klebsiella pneumoniae R 30, 37° C., pH=7.4, inoculum 10^4, read-out: MIC
[23] = Providencia stuartii 5158, 37° C., pH=7.4, inoculum 10^4, read-out: MIC
[24] = Staphylococcus aureus 53154 IP, 37° C., pH=7.4, inoculum 10^4, read-out: MIC
[25] = Salmonella typhimurium A 222 IP, 37° C., pH=7.4, inoculum 10^4, read-out: MIC
[26] = Citrobacter freundii GN 346, 37° C., pH=7.4, inoculum 10^4, read-out: MIC
[27] = Escherichia coli SOL RL 90, 37° C., pH=7.4, inoculum 10^4, read-out: MIC

Row | SMILES | MIC [1] [µg/mL] | MIC [3, 20] [µg/mL] | MIC [4] [µg/mL] | MIC [6] [µg/mL] | MIC [7] [µg/mL] | MIC (Shigella sonnei R 018) [µg/mL] | MIC [8, 21] [µg/mL] | MIC [9] [µg/mL] | MIC [10] [µg/mL] | MIC [11] [µg/mL] | MIC (Proteus morganii 1510; 1510) [µg/mL] | MIC [14] [µg/mL] | MIC [16] [µg/mL] | MIC [19] [µg/mL] | MIC [2, 22] [µg/mL] | MIC [5, 23] [µg/mL] | MIC [12, 24] [µg/mL] | MIC [15, 25] [µg/mL] | MIC [17, 26] [µg/mL] | MIC [18, 27] [µg/mL] | other results
1 | CCn1cc(C(=O)O)c(=O)c2cc(C=NOC)sc21 [Compound D, 4,7-Dihydro-7-ethyl-2-methoxyiminomethyl-4-oxo-thieno[2,3-b]pyridine-5-carboxylic acid] | 12.5 (≈ 44.6 µM) | 0.78 (≈ 2.78 µM) | 0.2 (≈ 0.714 µM) | > 100 | 0.78 (≈ 2.78 µM) | 1.56 (≈ 5.57 µM) | 0.78 (≈ 2.78 µM) | 50 (≈ 178 µM) | 1.56 (≈ 5.57 µM) | > 100 | 3.12 (≈ 11.1 µM) | 1.56 (≈ 5.57 µM) | 3.12 (≈ 11.1 µM) | > 100 | – | – | – | – | – | – | MIC ([2]; Klebsiella pneumoniae): 3.12 µg/mL (≈ 11.1 µM); MIC ([5]; Providencia stuartii, 5158): 3.12 µg/mL (≈ 11.1 µM); MIC ([12]; Staphylococcus aureus, 53154IP): 1.56 µg/mL (≈ 5.57 µM); MIC [13]: 0.78 µg/mL (≈ 2.78 µM); MIC ([15]; TYPHIMURIUM): 3.12 µg/mL (≈ 11.1 µM); MIC ([17]; Citrobacter freundii): 3.12 µg/mL (≈ 11.1 µM); MIC ([18]; Escherichia coli): 3.12 µg/mL (≈ 11.1 µM)
2 | CCn1cc(C(=O)O)c(=O)c2cc(C=Nc3ccccc3)sc21 [Compound J, 4,7-Dihydro-7-ethyl-2-N-phenyl-iminomethyl-4-oxo-thieno[2,3-b]pyridine-5-carboxylic acid] | > 100 | – | 50 (≈ 153 µM) | > 100 | 12.5 (≈ 38.3 µM) | 3.12 (≈ 9.56 µM) | – | > 100 | 3.12 (≈ 9.56 µM) | > 100 | 3.12 (≈ 9.56 µM) | 50 (≈ 153 µM) | 25 (≈ 76.6 µM) | > 100 | 25 (≈ 76.6 µM) | 12.5 (≈ 38.3 µM) | > 100 | 6.25 (≈ 19.1 µM) | 12.5 (≈ 38.3 µM) | 6.25 (≈ 19.1 µM) | MIC ([3]; Escherichia coli, 54127IP): 3.12 µg/mL (≈ 9.56 µM); MIC ([8]; Proteus vulgaris): 3.12 µg/mL (≈ 9.56 µM)
3 | CCn1cc(C(=O)O)c(=O)c2cc(C(=O)O)sc21 [Compound X, 4,7-dihydro-7-ethyl-2-carboxy-4-oxo-thieno[2,3-b]pyridine-5-carboxylic acid, reference compound] | > 100 | > 100 | > 100 | > 100 | > 100 | > 100 | > 100 | > 100 | – | > 100 | – | > 100 | > 100 | > 100 | > 100 | > 100 | > 100 | > 100 | > 100 | > 100 | MIC ([10]; Enterobacter hafniae RO 46, 37° C., pH=7.4, inoculum 10^4, read-out: MIC): > 100 µg/mL; MIC (Proteus morganii 1510; Proteus morganii 1510, 37° C., pH=7.4, inoculum 10^4, read-out: MIC): > 100 µg/mL
4 | CCn1cc(C(=O)O)c(=O)c2cc([N+](=O)[O-])sc21 [Compound Y, 4,7-dihydro-7-ethyl-2-nitro-4-oxo-thieno[2,3-b]pyridine-5-carboxylic acid, reference compound] | > 100 | – | 50 (≈ 186 µM) | > 100 | 12.5 (≈ 46.6 µM) | 3.12 (≈ 11.6 µM) | – | > 100 | 3.12 (≈ 11.6 µM) | > 100 | 3.12 (≈ 11.6 µM) | 50 (≈ 186 µM) | 25 (≈ 93.2 µM) | > 100 | 25 (≈ 93.2 µM) | 12.5 (≈ 46.6 µM) | > 100 | 6.25 (≈ 23.3 µM) | 12.5 (≈ 46.6 µM) | 6.25 (≈ 23.3 µM) | MIC ([3]; Escherichia coli, 54127IP): 3.12 µg/mL (≈ 11.6 µM); MIC ([8]; Proteus vulgaris): 3.12 µg/mL (≈ 11.6 µM)
